Assay results published in ChEMBL document CHEMBL5584314, “Identification of an m6A Natural Inhibitor, Lobeline, That Reverses Lenvatinib Resistance in Hepatocellular Tumors” (J Nat Prod, 2024).
The source made the active and inactive calls.

Columns and labels:
[1] = target: N6-adenosine-methyltransferase catalytic subunit (Homo sapiens) (UniProt Q86U44); assay: Inhibition of METTL3 in human Lenvatinib-resistant Huh7/Len cells assessed as effect on AKT1 mRNA expression level at 2 uM incubated for 72 hrs by RT-PCR analysis; type: cell-based
[2] = target: N6-adenosine-methyltransferase catalytic subunit (Homo sapiens) (UniProt Q86U44); assay: Inhibition of METTL3 in human Lenvatinib-resistant Huh7/Len cells assessed as effect on HNF4A mRNA expression level at 2 uM incubated for 72 hrs by RT-PCR analysis; type: cell-based
[3] = target: N6-adenosine-methyltransferase catalytic subunit (Homo sapiens) (UniProt Q86U44); assay: Inhibition of METTL3 in human Lenvatinib-resistant Huh7/Len cells assessed as effect on GATA3 mRNA expression level at 2 uM incubated for 72 hrs by RT-PCR analysis; type: cell-based
[4] = target: N6-adenosine-methyltransferase catalytic subunit (Homo sapiens) (UniProt Q86U44); assay: Inhibition of METTL3 in human Lenvatinib-resistant Huh7/Len cells assessed as effect on TET1 mRNA expression level at 2 uM incubated for 72 hrs by RT-PCR analysis; type: cell-based
[5] = target: N6-adenosine-methyltransferase catalytic subunit (Homo sapiens) (UniProt Q86U44); assay: Inhibition of METTL3 in human Lenvatinib-resistant Huh7/Len cells assessed as effect on SLC7A11 mRNA expression level at 2 uM incubated for 72 hrs by RT-PCR analysis; type: cell-based
[6] = target: N6-adenosine-methyltransferase catalytic subunit (Homo sapiens) (UniProt Q86U44); assay: Inhibition of METTL3 in human Lenvatinib-resistant Huh7/Len cells assessed as effect on FGFR3 mRNA expression level at 2 uM incubated for 72 hrs by RT-PCR analysis; type: cell-based
[7] = target: N6-adenosine-methyltransferase catalytic subunit (Homo sapiens) (UniProt Q86U44); assay: Inhibition of METTL3 in human Lenvatinib-resistant Huh7/Len cells assessed as effect on ADAMTS9 mRNA expression level at 2 uM incubated for 72 hrs by RT-PCR analysis; type: cell-based
[8] = target: N6-adenosine-methyltransferase catalytic subunit (Homo sapiens) (UniProt Q86U44); assay: Inhibition of METTL3 in human Lenvatinib-resistant Huh7/Len cells assessed as effect on CRB3 mRNA expression level at 2 uM incubated for 72 hrs by RT-PCR analysis; type: cell-based
[9] = target: N6-adenosine-methyltransferase catalytic subunit (Homo sapiens) (UniProt Q86U44); assay: Inhibition of METTL3 in human Lenvatinib-resistant Huh7/Len cells assessed as effect on IFIT2 mRNA expression level at 2 uM incubated for 72 hrs by RT-PCR analysis; type: cell-based
[10] = target: N6-adenosine-methyltransferase catalytic subunit (Homo sapiens) (UniProt Q86U44); assay: Inhibition of METTL3 in human Lenvatinib-resistant Huh7/Len cells assessed as effect on MMP3 mRNA expression level at 2 uM incubated for 72 hrs by RT-PCR analysis; type: cell-based
[11] = target: N6-adenosine-methyltransferase catalytic subunit (Homo sapiens) (UniProt Q86U44); assay: Inhibition of METTL3 in human Lenvatinib-resistant Huh7/Len cells assessed as effect on LATS1 mRNA expression level at 2 uM incubated for 72 hrs by RT-PCR analysis; type: cell-based
[12] = target: N6-adenosine-methyltransferase catalytic subunit (Homo sapiens) (UniProt Q86U44); assay: Inhibition of METTL3 in human Lenvatinib-resistant Huh7/Len cells assessed as effect on CTSL mRNA expression level at 2 uM incubated for 72 hrs by RT-PCR analysis; type: cell-based
[13] = target: N6-adenosine-methyltransferase catalytic subunit (Homo sapiens) (UniProt Q86U44); assay: Inhibition of METTL3 in human Lenvatinib-resistant Huh7/Len cells assessed as effect on EZH2 mRNA expression level at 2 uM incubated for 72 hrs by RT-PCR analysis; type: cell-based
[14] = target: N6-adenosine-methyltransferase catalytic subunit (Homo sapiens) (UniProt Q86U44); assay: Inhibition of METTL3 in human Lenvatinib-resistant Huh7/Len cells assessed as effect on IFFO1 mRNA expression level at 2 uM incubated for 72 hrs by RT-PCR analysis; type: cell-based
[15] = target: N6-adenosine-methyltransferase catalytic subunit (Homo sapiens) (UniProt Q86U44); assay: Inhibition of METTL3 in human Lenvatinib-resistant Huh7/Len cells assessed as effect on UCK2 mRNA expression level at 2 uM incubated for 72 hrs by RT-PCR analysis; type: cell-based
[16] = target: N6-adenosine-methyltransferase catalytic subunit (Homo sapiens) (UniProt Q86U44); assay: Inhibition of METTL3 in human Lenvatinib-resistant Huh7/Len cells assessed as effect on MMP13 mRNA expression level at 2 uM incubated for 72 hrs by RT-PCR analysis; type: cell-based
[17] = target: N6-adenosine-methyltransferase catalytic subunit (Homo sapiens) (UniProt Q86U44); assay: Inhibition of METTL3 in human Lenvatinib-resistant Huh7/Len cells assessed as effect on TIBIM6 mRNA expression level at 2 uM incubated for 72 hrs by RT-PCR analysis; type: cell-based
[18] = target: N6-adenosine-methyltransferase catalytic subunit (Homo sapiens) (UniProt Q86U44); assay: Inhibition of METTL3 in human Lenvatinib-resistant Huh7/Len cells assessed as effect on MYC mRNA expression level at 2 uM incubated for 72 hrs by RT-PCR analysis; type: cell-based
[19] = target: N6-adenosine-methyltransferase catalytic subunit (Homo sapiens) (UniProt Q86U44); assay: Inhibition of METTL3 in human Huh-7 cells assessed as down regulation of m6A RNA level at 2 uM incubated for 72 hrs by colorimetric analysis; type: cell-based
[20] = target: N6-adenosine-methyltransferase catalytic subunit (Homo sapiens) (UniProt Q86U44); assay: Inhibition of METTL3 in human Lenvatinib-resistant Huh7/Len cells assessed as effect on NPCL1 mRNA expression level at 2 uM incubated for 72 hrs by RT-PCR analysis; type: cell-based
[21] = target: N6-adenosine-methyltransferase catalytic subunit (Homo sapiens) (UniProt Q86U44); assay: Inhibition of METTL3 in human Lenvatinib-resistant Huh7/Len cells assessed as effect on DEK mRNA expression level at 2 uM incubated for 72 hrs by RT-PCR analysis; type: cell-based
[22] = Toxicity in BALB/c nude mouse PDX model xenografted with human Lenvatinib-resistant HCC/Len cells assessed as changes in organ index at 3 mg/kg, IG administered 5 times per week for 3 weeks; type: organism-based; settings: in vivo, po, 504 h
[23] = test system: Lenvatinib-resistant Hep3B/Len; assay: Inhibition of cell migration in human Lenvatinib-resistant Hep3B/Len cells at 5 uM incubated for 48 hrs by transwell assay; type: functional, cell-based
[24] = test system: Lenvatinib-resistant Huh7/Len; assay: Antiproliferative activity against human Lenvatinib-resistant Huh7/Len cells assessed as inhibition of clone formation ability at 5 to 10 uM preincubated for 72 hrs and measured after 7 to 10 days by crystal violet staining based assay; type: functional, cell-based; settings: dose 5-10 µM, time 10-13 day
[25] = test system: Lenvatinib-resistant Huh7/Len; assay: Antitumor activity against human Lenvatinib-resistant Huh7/Len cells xenografted in BALB/c nude mouse assessed as reduction in Ki-67 protein expression tumor tissue at 3 mg/kg, IG cotreated with lobeline 5 times per week for 3 weeks by immunohistochemistry analysis; type: functional; set-up: scale not given: the % may be the effect or the level left
[26] = Toxicity in BALB/c nude mouse PDX model xenografted with human Lenvatinib-resistant HCC/Len cells assessed as changes in body weight at 3 mg/kg, IG cotreated with lobeline 5 times per week for 3 weeks administered 5 times per week for 3 weeks; type: organism-based; settings: in vivo, po, 504 h
[27] = Toxicity in BALB/c nude mouse xenografted with human Lenvatinib-resistant Huh7/Len cells assessed as changes in body weight at 3 mg/kg, IG cotreated with lobeline 5 times per week for 3 weeks; type: organism-based; settings: in vivo, po, 504 h
[28] = test system: Lenvatinib-resistant Huh7/Len; assay: Antiproliferative activity against human Lenvatinib-resistant Huh7/Len cells assessed as inhibition of cell viability up to 40 uM after 72 hrs in presence of lobeline by CCK-8 assay; type: functional, cell-based
[29] = Toxicity in BALB/c nude mouse PDX model xenografted with human Lenvatinib-resistant HCC/Len cells assessed as changes in organ index at 3 mg/kg, IG cotreated with lobeline 5 times per week for 3 weeks administered 5 times per week for 3 weeks; type: organism-based; settings: in vivo, po, 504 h
[30] = test system: Lenvatinib-resistant Huh7/Len; assay: Antitumor activity against human Lenvatinib-resistant Huh7/Len cells xenografted in BALB/c nude mouse assessed as inhibition of tumor volume at 3 mg/kg, IG cotreated with lobeline 5 times per week for 3 weeks relative to control; type: functional; settings: po, 504 h
[31] = Toxicity in BALB/c nude mouse xenografted with human Lenvatinib-resistant Huh7/Len cells assessed as changes in organ index at 3 mg/kg, IG administered 5 times per week for 3 weeks; type: organism-based; settings: in vivo, po, 504 h
[32] = test system: Lenvatinib-resistant Huh7/Len; assay: Induction of apoptosis in human Lenvatinib-resistant Huh7/Len cells xenografted in BALB/c nude mouse assessed as apoptotic cells in tumor tissue at 3 mg/kg, IG cotreated with lobeline 5 times per week for 3 weeks by immunohistochemistry analysis; type: functional, organism-based
[33] = test system: Lenvatinib-resistant Huh7/Len; assay: Antiproliferative activity against human Lenvatinib-resistant Huh7/Len cells assessed as inhibition of clone formation ability at 5 to 10 uM preincubated for 72 hrs and measured after 7 to 10 days in presence of lobeline by crystal violet staining based assay; type: functional, cell-based; settings: dose 5-10 µM, time 10-13 day
[34] = Toxicity in BALB/c nude mouse xenografted with human Lenvatinib-resistant Huh7/Len cells assessed as changes in organ index at 3 mg/kg, IG cotreated with lobeline 5 times per week for 3 weeks; type: organism-based; settings: in vivo, po, 504 h
[35] = test system: Lenvatinib-resistant Hep3B/Len; assay: Antiproliferative activity against human Lenvatinib-resistant Hep3B/Len cells assessed as inhibition of clone formation ability at 5 to 10 uM preincubated for 72 hrs and measured after 7 to 10 days in presence of lobeline by crystal violet staining based assay; type: functional, cell-based; settings: dose 5-10 µM, time 10-13 day
[36] = test system: Lenvatinib-resistant Hep3B/Len; assay: Antiproliferative activity against human Lenvatinib-resistant Hep3B/Len cells assessed as inhibition of clone formation ability at 5 to 10 uM preincubated for 72 hrs and measured after 7 to 10 days by crystal violet staining based assay; type: functional, cell-based; settings: dose 5-10 µM, time 10-13 day
[37] = Toxicity in BALB/c nude mouse xenografted with human Lenvatinib-resistant Huh7/Len cells assessed as changes in body weight at 3 mg/kg, IG administered 5 times per week for 3 weeks; type: organism-based; settings: in vivo, po, 504 h
[38] = test system: Lenvatinib-resistant HCC/Len; assay: Antitumor activity against human Lenvatinib-resistant HCC/Len cells xenografted in BALB/c nude mouse model of PDX assessed as reduction in Ki-67 protein expression tumor tissue at 3 mg/kg, IG cotreated with lobeline 5 times per week for 3 weeks by immunohistochemistry analysis; type: functional, organism-based
[39] = test system: Lenvatinib-resistant Huh7/Len; assay: Inhibition of cell migration in human Lenvatinib-resistant Huh-7/Len cells at 5 uM incubated for 48 hrs in presence of lobeline by transwell assay relative to control; type: functional
[40] = test system: Lenvatinib-resistant HCC/Len; assay: Antitumor activity against human Lenvatinib-resistant HCC/Len cells xenografted in BALB/c nude mouse model of PDX assessed as tumor growth inhibition at 3 mg/kg, IG cotreated with lobeline 5 times per week for 3 weeks; type: functional, organism-based
[41] = test system: Lenvatinib-resistant HCC/Len; assay: Antitumor activity against human Lenvatinib-resistant HCC/Len cells xenografted in BALB/c nude mouse model of PDX assessed as reduction in m6A protein expression tumor tissue at 3 mg/kg, IG cotreated with lobeline 5 times per week for 3 weeks by immunohistochemistry analysis; type: functional, organism-based
[42] = test system: Lenvatinib-resistant HCC/Len; assay: Antitumor activity against human Lenvatinib-resistant HCC/Len cells xenografted in BALB/c nude mouse model of PDX assessed as inhibition of tumor volume at 3 mg/kg, IG cotreated with lobeline 5 times per week for 3 weeks relative to control; type: functional; settings: po, 504 h
[43] = test system: Lenvatinib-resistant Hep3B/Len; assay: Antiproliferative activity against human Lenvatinib-resistant Hep3B/Len cells assessed as inhibition of cell viability up to 40 uM after 72 hrs in presence of lobeline by CCK-8 assay; type: functional, cell-based
[44] = test system: Lenvatinib-resistant Huh7/Len; assay: Inhibition of cell migration in human Lenvatinib-resistant Huh7/Len cells at 5 uM incubated for 48 hrs by transwell assay; type: functional, cell-based
[45] = test system: Lenvatinib-resistant Hep3B/Len; assay: Inhibition of cell migration in human Lenvatinib-resistant Hep3B/Len cells at 5 uM incubated for 48 hrs in presence of lobeline by transwell assay relative to control; type: functional
[46] = Toxicity in BALB/c nude mouse PDX model xenografted with human Lenvatinib-resistant HCC/Len cells assessed as changes in body weight at 3 mg/kg, IG administered 5 times per week for 3 weeks; type: organism-based; settings: in vivo, po, 504 h
[47] = test system: Lenvatinib-resistant Huh7/Len; assay: Antitumor activity against human Lenvatinib-resistant Huh7/Len cells xenografted in BALB/c nude mouse assessed as tumor growth inhibition at 3 mg/kg, IG cotreated with lobeline 5 times per week for 3 weeks; type: functional, organism-based

Sequence of N6-adenosine-methyltransferase catalytic subunit (Homo sapiens) (Q86U44 whole entry): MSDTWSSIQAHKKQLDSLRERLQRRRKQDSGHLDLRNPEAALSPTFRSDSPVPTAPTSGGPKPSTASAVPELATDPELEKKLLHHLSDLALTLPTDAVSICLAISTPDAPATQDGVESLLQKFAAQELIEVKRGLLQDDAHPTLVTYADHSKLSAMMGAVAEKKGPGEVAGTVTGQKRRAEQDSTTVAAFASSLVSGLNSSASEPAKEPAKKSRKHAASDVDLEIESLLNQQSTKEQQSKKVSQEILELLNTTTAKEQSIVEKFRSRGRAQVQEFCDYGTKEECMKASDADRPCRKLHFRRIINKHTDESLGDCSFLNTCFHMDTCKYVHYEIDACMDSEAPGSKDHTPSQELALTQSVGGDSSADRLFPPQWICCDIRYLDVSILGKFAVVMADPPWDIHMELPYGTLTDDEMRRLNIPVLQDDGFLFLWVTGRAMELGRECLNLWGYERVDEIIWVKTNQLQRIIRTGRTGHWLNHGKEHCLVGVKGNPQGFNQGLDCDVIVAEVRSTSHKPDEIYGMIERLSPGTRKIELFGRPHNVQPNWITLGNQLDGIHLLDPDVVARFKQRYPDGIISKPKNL

O=C(NCc1cn2cc(CNCC3CCCCC3)ccc2n1)c1cc(=O)n2ccccc2n1
18%: inhibition [19]
active: inhibition [1] | inhibition [2] | inhibition [3] | inhibition [4] | inhibition [5] | inhibition [6] | inhibition [7] | inhibition [8] | inhibition [9] | inhibition [10] | inhibition [11] | inhibition [12] | inhibition [13] | inhibition [14] | inhibition [15] | inhibition [16] | inhibition [17] | inhibition [18] | inhibition [20] | inhibition [21]

COc1cc2nccc(Oc3ccc(NC(=O)NC4CC4)c(Cl)c3)c2cc1C(N)=O [LENVATINIB]
60%: inhibition in vivo at 3 mg/kg [42]
42%: inhibition at 5 µM [39] | inhibition at 5 µM [45]
active: inhibition [28] | Activity [32] | Activity [38] | TGI [40] | Activity [41] | inhibition [43] | TGI [47]
inactive: inhibition [23] | inhibition [24] | inhibition [33] | inhibition [35] | inhibition [36] | inhibition [44]
Non-Toxic: Activity [22] | Activity [26] | Activity [27] | Activity [29] | Activity [31] | Activity [34] | Activity [37] | Activity [46]
68%: inhibition in vivo at 3 mg/kg [30]
30%: Activity [25]
